Source: US7605164B2, “Compositions and methods for treating heart failure” (Cytokinetics, Inc., priority 2001, dated 2009)

melting point: 160 to 162 °C
SMILES: O=C(Nc1cc(Oc2cccnc2)cc(-c2ccccn2)c1)c1ccc(F)cc1 [Example 2, 4-Fluoro-N-[3-pyridin-2-yl-5-(pyridin-3-yloxy)-phenyl]-benzamide]
